Results on 13 molecules are retold here after patent US20080161294A1, “Urea derivative, medicinal composition containing the same, and medicinal use of these” (priority 2005, published 2008).

The target of data set [1] is T1, human V2 receptor (Homo sapiens, UniProt P30518). The data set is described as follows: Study to confirm the agonism of human V2 receptor (intracellular Ca2+, HEK293 cells coexpressing human V2 receptor and Gqs chimeric protein). It is filed as cell-based. On the set-up: expressed in transfected cells; host or cells: HEK293 cells (American Type Culture Collection), transient transfection with pCI-neo/hV2 and pLEC-Gqs5. Particulars: for EC50: intracellular Ca2+ response, HEK293 cells coexpressing human V2 receptor and Gqs; for I A (intrinsic activity): maximum response relative to AVP = 1.00. How it is done: The Study to Confirm the Agonism of Human V2 Receptor
T1 sequence (P30518 whole entry): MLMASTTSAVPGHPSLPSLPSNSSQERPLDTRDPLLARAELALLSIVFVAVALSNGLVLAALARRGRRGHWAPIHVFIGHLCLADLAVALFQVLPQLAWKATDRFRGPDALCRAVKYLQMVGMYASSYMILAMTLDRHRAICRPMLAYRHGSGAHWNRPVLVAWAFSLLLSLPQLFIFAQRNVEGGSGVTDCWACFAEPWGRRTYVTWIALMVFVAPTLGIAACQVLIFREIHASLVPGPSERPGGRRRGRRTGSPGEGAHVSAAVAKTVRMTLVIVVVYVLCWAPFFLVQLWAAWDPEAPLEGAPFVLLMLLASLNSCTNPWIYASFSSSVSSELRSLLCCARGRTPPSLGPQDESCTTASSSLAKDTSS
The experiment to confirm the response of the test compounds to human V2 receptor was carried out using the cells prepared as described below in order to use this confirmation study to see the agonism of human V2 receptor of the test compounds.
The test compounds were dissolved in dimethylsulfoxide at 10 mM and solutions of the test compounds were prepared by 10-fold serial dilution with the Assay buffer (0.1% BSA, 20 mM HEPES/Hank's balanced salt solution, pH 7.4) at the concentration of 0.1 nM to 10 μM, which were used in this study.
Human V2 receptor couples with Gs protein, one of the G-coupling protein, and consequently produces cyclic adenosine 3′, 5′-monophosphate (cAMP) via adenylate cyclase. This cAMP produce can be substituted to intracellular increase of Ca^2+ with coexpressing Gqs, a chimeric protein, and human V2 receptor (Mol. Pharmacol., Vol. 50, pp. 885-890, 1996). The responses of the test compounds for human V2 receptor were quantified by measuring this intracellular Ca^2+. The changes of intracellular Ca^2+ after adding the test compounds at each concentration as mentioned above (0.1 nM to 10 μM) were measured with a FlexStation (Molecular Devices) using a FLIPR CALCIUM ASSAY KIT (Molecular Devices).
The intrinsic activities (IA) of the test compounds were calculated from the maximum response of the test compounds as that of AVP was considered to be 1.00. In case of a full agonist, the EC50 values of the test compounds were calculated as the maximum response of AVP was considered to be 100% and in the case of a partial agonist, EC50 values of test compounds were calculated as the maximum response of own test compounds were considered to be 100%. The concentration that achieved to 50% response of the maximum response in a concentration-response curve was considered as EC50 value. The values of EC50 obtained in this study were shown in Table 84 described below as indications of the agonism of human V2 receptor.
The Preparation of the Cells Using Confirmation Study of an Agonism of Human V2 Receptor (HEK293 Cells Coexpressed Human V2 Teceptor and Gqs Chimeric Protein)
HEK293 cells (American Type Culture Collection) were incubated in the Eagle's Minimum Essential Medium (EMEM, Invitrogen) containing 1 mM sodium pyruvate, nonessential amino acids (0.1 mM), streptomycin (100 μg/mL), penicillin (100 U/mL), 10% fetal calf serum (Sanko chemicals) in an incubator with 5% CO2 at 37° C. The transfection was carried out by adding pCI-neo hV2 expression vector, expression vector inserted with the sequence coding Gqs chimeric protein (pLEC-Gqs5, LiveWare, Molecular Devices) and Lipofectamine2000 (Invitrogen), all diluted with OPTI-MEM I Reduced Serum Medium I (Invitrogen), to the cell suspension which was prepared from the confluent cells suspended with EMEM as mentioned above without antibiotics at 1×10^6 cells/mL. After the transfection, the cells (HEK293 cells coexpressed human V2 receptor and Gqs chimeric protein) were incubated in an incubator with 5% CO2 for two days and were used as cells for confirming agonism of human V2 receptor, and used for assessment of the test compounds. The expression plasmid vector of human V2 receptor represented as pCI-neo/hV2 above was constructed by the method as described below.

The target of data set [2] is T1, human V2 receptor. The data set is described as follows: Binding experiment for human V2 receptor ([3H]-AVP displacement, CHO cell membranes). The following applies: inhibition of [3H]-AVP binding, CHO cell membranes expressing human V2 receptor; Ki calculated from IC50 and Kd; read-out: Affinity to human V2 receptor Ki. Further details: purchased Packard BioScience; host or cells: CHO cell membranes. How it is done: Binding Experiment for Human V2 Receptor
Test compounds were dissolved in dimethylsulfoxide at 10 mM. The affinities for human V2 receptor were determined by an inhibition against [^3H]-Arginie vasopressin (AVP) (Perkin elmer Japan) binding to the human V2 receptor using CHO cell membranes expressed human V2 receptor (Packard BioScience). Cell membranes suspension was prepared by suspending the cell membranes as mentioned above with Assay buffer (50 mM Tris-HCl, 10 mM MgCl2, 0.1% bovine serum albumin (BSA), pH7.4) at an adequate protein concentration. The test compound solutions were prepared by diluting the dimethylsulfoxide solution of the test compound as mentioned above with Assay buffer at final concentration of 10 nM, 100 nM, 1 μM and 10 μM (in this diluting procedure, concentration of dimethylsulfoxide was adjusted to be 0.5% at each concentration of the test compound). Cell membranes suspension (50 μL), 3 nM of [^3H]-AVP (50 μL), Assay buffer (50 μL) and the solution of the test compounds at each concentrations (50 μL) were added to MultiScreen 96-well plate (Millipore) and the mixture was incubated for an hour at 25° C. with shaking slightly. After filtration by aspiration, the plate was washed with ice-cold washing buffer (50 mM Tris-HCl, 10 mM MgCl2, pH 7.4) for three times. After dry the plate, Microscinti-20 (Packard) was added to each well and the plate was shaken slightly, and then radioactivities of each well were counted with a micro plate scintillation counter, TopCount (Packard). Non-specific binding of [^3H]-AVP for cell membranes was determined by adding 1 μM of cold AVP substituted for the test compounds. The concentration of the test compounds inhibiting the specific binding of [^3H]-AVP by 50% was considered as IC50 value.
The Calculation of Kd Value of [^3H]-AVP for the Cell Membranes Expressed Human V2 Receptor
The suspension of the cell membranes expressed human V2 receptor was prepared with diluting adequately with the Assay buffer as mentioned above. In consideration for the radioactivity of [^3H]-AVP, six different concentrations (final concentration; ranging from approximately 100 pM to 6000 pM) of [^3H]-AVP were prepared by serial dilution by from 2 to 3 fold with the Assay buffer. The cell membranes suspension (50 μL), each concentrations of [^3H]-AVP (50 μL), the Assay buffer (50 μL) and 1 μM of cold AVP or the Assay buffer (50 μL) were added to MultiScreen 96-well plate (Millipore) and the mixture was incubated for an hour at 25° C. with shaking slightly. The specific bindings (B value) of each concentrations of the [^3H]-AVP were determined by the method as mentioned above and free-bound contents (F value) at each concentrations of the [^3H]-AVP were determined. The Kd value was calculated by Scatchard analysis using the B value and the F value.

Data set [3] has as its system anesthetized rats infused with hypotonic solution. The data set is described as follows: Antidiuretic effect on diuresis induced by hypotonic solution in anesthetized rats. It is filed as in vivo, rat. Particulars: 10 μg/kg intravenously; for Antidiuretic effect (decreasing rate of urine volume): anesthetized male SD rats, against pre value; for Duration tine: period until decreasing rate of urine volume restored to −20%. How it is done: The Study of Antidiuretic Effect
The Confirmation Study of Antidiuretic Effect on the Diuretic Activity Induced by Loading Hypotonic Solution in the Anesthetized Rats Infused with Hypotonic Solution
It has been reported that plasma AVP level was decreased with intravenous infusion of hypotonic solution (J. Endocrinol., Vol. 141, pp. 59-67, 1994). The antidiuretic effect of the test compounds in the rats induced a diuretic condition was determined by the method as reported by Angchanpen et al (Br. J. Pharmacol., Vol. 93, pp. 151-155, 1988). The test compounds were dissolved in dimethylsulfoxide at 10 mM, and used in the study. Male SD rats (200-400 g weight) were anesthetized with 100 mg/kg of Inactin (SIGMA) intraperitonealy and each cannula was inserted into trachea, jugular vein, bladder and femoral vein, respectively. The hypotonic solution (0.3% NaCl, 0.83% glucose) was infused via femoral vein at 9 mL/hour. The urine volume obtained via cannula inserted into bladder was measured every 10 minutes. After steady-state of urine volume for three 10 minutes periods, test compounds prepared as mentioned above were administered intravenously at 10 μg/kg via cannula inserted into jugular vein. Dimethylsulfoxide/saline (0.3%) was used as a vehicle. The average of urine volume measured for three 10 minutes periods before the administration was defined as the pre value (0%). After the administration of the test compounds, the urine volume was measured every 10 minutes. The antidiuretic effect, namely the decrease of the urine volume, induced by administration of test compounds was calculated from the decreasing rate of urine volume (minus %) against the pre value. Because maximum decreasing rate of the urine volume after administration of vehicle was −20% in this study, the period that decreasing rate of urine volume restored to −20% after administration of the test compounds was considered as indication of duration time of the test compounds.

Data set [4] concerns Male SD rats. The data set is described as follows: Acute toxicity test. Type of data set: in vivo. The following applies: 10 mg/kg intravenously, N=2, one hour experimental period, urethane anesthesia. As to the method:
Male SD rats (250-300 g weight) were divided into some groups (N=2) and each cannula was inserted into trachea and jugular vein under anesthesia with urethane (1.5 g/kg, subcutaneously). The test compound solutions were prepared with an adequate solvent to be a dosage of 10 mg/kg, and then the solution was administered intravenously via cannula. The survival rate was determined for an hour experimental period.

Molecules are shown by their SMILES.

For the molecule `Cc1cc(-n2cccn2)ccc1C(=O)N1C[C@@H](C)N(C(=O)NCC(N)=O)Cc2ccccc21` [Example 5-12], in data set [1], the EC50 came out at 6.5 nM and the “I A (intrinsic activity)” value came to 0.79.

`C[C@@H]1CN(C(=O)c2ccc(-n3cccn3)cc2C(F)(F)F)c2ccccc2CN1C(=O)NCC(N)=O` [Example 5-11]: in data set [1], the EC50 came to 8.6 nM and the “I A (intrinsic activity)” value is recorded as 0.75.

As to `C[C@@H]1CN(C(=O)c2ccc(-n3cccn3)cc2Cl)c2ccc(F)cc2CN1C(=O)NCC(N)=O` [Example 5-19], in data set [1], it took 15.6 nM to reach a half-maximal effect (EC50) and the “I A (intrinsic activity)” value is 0.57.

As to `C[C@@H]1CN(C(=O)c2ccc(-n3cccn3)cc2Cl)c2ccccc2CN1C(=O)NCC(=O)O` [Example 3-1, {[(R)-1-(2-Chloro-4-pyrazol-1-ylbenzoyl)-3-methyl-1,2,3,5-tetrahydrobenzo[e]-1,4-diazepin-4-carbonyl]amino}acetic acid], the inhibitory constant (Ki) in data set [2] is 19.7 nM. Besides, in data set [1], the EC50 was 9.4 nM and the “I A (intrinsic activity)” value was determined as 0.59. Moreover, in data set [3], the “Antidiuretic effect (decreasing rate of urine volume)” value was −88.7% and the Duration tine was found to be 60 min.

`C[C@@H]1CN(C(=O)c2ccc(-n3cccn3)cc2F)c2ccccc2CN1C(=O)NCC(N)=O` [Example 5-15]: in data set [1], a half-maximal response (EC50) required 9.1 nM and the “I A (intrinsic activity)” value is listed as 0.71.

As to `C[C@@H]1CN(C(=O)c2ccc(-n3cccn3)cc2Cl)c2ccccc2CN1C(=O)NCC(=O)N1CCCC1` [Example 5-5], in data set [1], the EC50 came to 24.9 nM and the “I A (intrinsic activity)” value stood at 0.83. In addition, in data set [4], the Dead is reported as 0/2. Moreover, in data set [3], the “Antidiuretic effect (decreasing rate of urine volume)” value is reported as −89.4% and the Duration tine turned out to be 90 min.

For the molecule `C[C@@H]1CN(C(=O)c2ccc(-n3cccn3)cc2Cl)c2ccccc2CN1C(=O)NCCO` [Example 4, N-(2-Hydroxyethyl)-(R)-1-(2-chloro-4-pyrazol-1-ylbenzoyl)-3-methyl-1,2,3,5-tetrahydrobenzo[e]-1,4-diazepin-4-carboxamide], in data set [2], the Ki is 61.9 nM. In data set [1], the half-maximal effective concentration (EC50) was 16 nM and the “I A (intrinsic activity)” value turned out to be 0.75.

As to `CNC(=O)CNC(=O)N1Cc2ccccc2N(C(=O)c2ccc(-n3cccn3)cc2Cl)C[C@H]1C` [Example 5-3], the Ki in data set [2] was 14 nM. Further, in data set [1], the EC50 turned out to be 9.1 nM and the “I A (intrinsic activity)” value is reported as 0.48.

For `C[C@@H]1CN(C(=O)c2ccc(N3CCCC3)cc2Cl)c2ccccc2CN1C(=O)NCC(N)=O` [Example 5-18], in data set [2], the inhibition constant Ki was 27.8 nM. Further, in data set [1], the concentration for a half-maximal effect (EC50) was 2.2 nM and the “I A (intrinsic activity)” value came out at 0.89.

With `C[C@@H]1CN(C(=O)c2ccc(-n3cccn3)cc2Cl)c2ccccc2CN1C(=O)NCC(=O)N1CCCCC1` [Example 5-6], in data set [1], a half-maximal response (EC50) required 17.3 nM and the “I A (intrinsic activity)” value amounted to 0.92.

Take `C[C@@H]1CN(C(=O)c2ccc(-n3cccn3)cc2Cl)c2ccccc2CN1C(=O)NCC(N)=O` [Example 5-2]: in data set [2], the Ki is 35.5 nM. Moreover, in data set [1], the EC50 amounted to 7.3 nM and the “I A (intrinsic activity)” value is reported as 0.71. For the same molecule, in data set [4], the Dead was 0/2. Moreover, in data set [3], the “Antidiuretic effect (decreasing rate of urine volume)” value was −83.9% and the Duration tine was found to be 50 min.

On to `C[C@@H]1CN(C(=O)c2ccc(OCCO)cc2Cl)c2ccccc2CN1C(=O)NCC(=O)O` [Example 3-6], for which, in data set [1], the response was half-maximal at 15.4 nM (EC50) and the “I A (intrinsic activity)” value is 0.93.

Turning to `C[C@@H]1CN(C(=O)c2ccc(-n3cccn3)cc2Cl)c2ccccc2CN1C(=O)NCC(=O)N(C)C` [Example 5-4], in data set [1], a half-maximal response (EC50) required 27.6 nM and the “I A (intrinsic activity)” value was found to be 0.49. The Dead in data set [4] is 0/2. Further, in data set [3], the “Antidiuretic effect (decreasing rate of urine volume)” value was −90.4% and the Duration tine came out at 80 min.
